Experimental findings from patent US20240158446A1, “CYCLIC COMPOUND HAVING SELECTIVE INHIBITORY ACTION ON KRAS OVER HRAS AND NRAS” (CHUGAI SEIYAKU KABUSHIKI KAISHA, priority 2021, published 2024) are described below.

Read-outs that look alike come from different tables or passages of the source.

Experiment [1] addresses GDP-bound KRAS wild-type protein (Homo sapiens, UniProt P01116). In words: Binding to KRAS by surface plasmon resonance (SPR), Single Cycle Kinetics.
Experiment [2] addresses GDP-bound NRAS wild-type protein (Homo sapiens, UniProt P01111). In words: Binding to NRAS by surface plasmon resonance (SPR), Single Cycle Kinetics. As to conditions: for NRAS/KRAS (ratio of KD value for NRAS to KD value for KRAS): GDP-bound NRAS wild-type protein vs GDP-bound KRAS wild-type protein; for NRAS/KRAS (ratio of KD value with respect to GDP-bound NRAS wild-type protein to KD value with respect to KRAS): SPR KD ratio NRAS/KRAS, class symbols.

The target in experiment [3] is GDP-bound HRAS wild-type protein (Homo sapiens, UniProt P01112). Briefly: Binding to HRAS by surface plasmon resonance (SPR), Single Cycle Kinetics. The note with it: for HRAS/KRAS (ratio of KD value for HRAS to KD value for KRAS): GDP-bound HRAS wild-type protein vs GDP-bound KRAS wild-type protein; for HRAS/KRAS (ratio of KD value with respect to GDP-bound HRAS wild-type protein to KD value with respect to KRAS): SPR KD ratio HRAS/KRAS, class symbols.

In experiment [4] the test system is human lung cancer strain NCI-H441.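 Also: cell proliferation inhibition after four days measured by CellTiter-Glo.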
Where [5] appears, read: SPR, Single Cycle Kinetics, GDP-bound KRAS wild-type protein, read-out: KRAS KD.

Sequence of GDP-bound HRAS wild-type protein (P01112 whole entry): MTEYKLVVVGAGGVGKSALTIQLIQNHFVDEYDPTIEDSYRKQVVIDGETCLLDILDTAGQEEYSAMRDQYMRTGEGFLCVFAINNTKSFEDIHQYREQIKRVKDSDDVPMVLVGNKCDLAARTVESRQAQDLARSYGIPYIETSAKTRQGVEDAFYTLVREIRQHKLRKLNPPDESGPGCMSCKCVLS
Sequence of GDP-bound NRAS wild-type protein (P01111 whole entry): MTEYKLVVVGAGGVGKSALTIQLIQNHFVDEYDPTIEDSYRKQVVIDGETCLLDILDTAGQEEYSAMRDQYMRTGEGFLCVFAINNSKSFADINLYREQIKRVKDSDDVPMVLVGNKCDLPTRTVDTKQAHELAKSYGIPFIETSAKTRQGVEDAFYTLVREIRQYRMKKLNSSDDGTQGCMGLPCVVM
Sequence of GDP-bound KRAS wild-type protein (P01116 whole entry): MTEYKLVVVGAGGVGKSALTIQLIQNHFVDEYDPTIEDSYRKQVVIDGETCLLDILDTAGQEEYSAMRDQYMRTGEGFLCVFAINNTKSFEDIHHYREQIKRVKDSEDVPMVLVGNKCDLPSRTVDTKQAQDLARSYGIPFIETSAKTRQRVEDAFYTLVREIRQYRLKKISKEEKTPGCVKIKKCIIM

For `CCO[C@@H]1C[C@H]2C(=O)NC3(CCC3)C(=O)N(C)[C@@H](C3CCCC3)C(=O)N(C)[C@H](C(=O)N3CCOCC3)CC(=O)N(C)[C@@H](Cc3ccc(Cl)c(Cl)c3)C(=O)N[C@@H]([C@@H](C)CC)C(=O)N(C)CC(=O)N(C)[C@H]3CCCCCN(C3=O)[C@@H](Cc3ccc(F)cc3)C(=O)N(C)CC(=O)N[C@@H](CCc3cc(F)c(C(F)(F)F)c(F)c3)C(=O)N2C1` [PP1188], the dissociation constant (Kd) in experiment [1] (setting [5]) worked out at 4.3e-10 M. For the same compound, the “NRAS/KRAS (ratio of KD value for NRAS to KD value for KRAS)” value in experiment [2] (SPR) is “B (a compound having 3 or more and less than 10 is denoted as B)”. The “HRAS/KRAS (ratio of KD value for HRAS to KD value for KRAS)” value in experiment [3] (SPR) is “B (a compound having 3 or more and less than 10 is denoted as B)”. This compound displayed an IC50 in experiment [4] of 33.5 nM.

For `CCC[C@H]1C(=O)N[C@@H](CC(C)C)C(=O)N(CCOC)CC(=O)N(C)[C@H]2C/C=C\CCN(C2=O)[C@@H](Cc2ccc(C)cc2)C(=O)N(C)CC(=O)N[C@@H](CCc2cc(F)c(C(F)(F)F)c(F)c2)C(=O)N2C[C@H](OCC)C[C@H]2C(=O)NC2(CCC2)C(=O)N(C)[C@@H](C2CCCC2)C(=O)N(C)[C@H](C(=O)N(C)C)CC(=O)N1C` [PP2541], the equilibrium dissociation constant (Kd) in experiment [1] (SPR Single Cycle Kinetics, GDP-bound KRAS wild-type protein, 1:1 binding model, read-out: KRAS KD) came to 4.9e-09 M. In addition, the “NRAS/KRAS (ratio of KD value with respect to GDP-bound NRAS wild-type protein to KD value with respect to KRAS)” value in experiment [2] is “A (a compound having 10 or more and less than 20 is denoted as A)”. Besides, the “HRAS/KRAS (ratio of KD value with respect to GDP-bound HRAS wild-type protein to KD value with respect to KRAS)” value in experiment [3] is “B (a compound having 3 or more and less than 10 is denoted as B)”. For the same compound, the IC50 in experiment [4] is 374 nM.

As to `CCO[C@@H]1C[C@H]2C(=O)NC3(CCC3)C(=O)N(C)[C@@H](C(CC)CC)C(=O)N(C)[C@H](C(=O)N(C)C)CC(=O)N(C)[C@@H](CC)C(=O)N[C@@H]([C@@H](C)CC)C(=O)N(C)CC(=O)N(C)[C@H]3C/C=C\CCN(C3=O)[C@@H](Cc3ccc(C(F)(F)F)cc3)C(=O)N(C)CC(=O)N[C@@H](CCc3cc(F)c(C(F)(F)F)c(F)c3)C(=O)N2C1` [PP1200], the Kd in experiment [1] (setting [5]) came out at 2e-10 M. Also, the “NRAS/KRAS (ratio of KD value for NRAS to KD value for KRAS)” value in experiment [2] (SPR) is reported as “AA (a compound having 20 or more is denoted as AA)”. In addition, the “HRAS/KRAS (ratio of KD value for HRAS to KD value for KRAS)” value in experiment [3] (SPR) is “A (a compound having 10 or more and less than 20 is denoted as A)”. Further, the IC50 in experiment [4] was 19.2 nM.

Regarding `CCO[C@@H]1C[C@H]2C(=O)NC3(CC(C)(C)C3)C(=O)N(C)[C@@H](C3CCCC3)C(=O)N(C)[C@H](C(=O)N(C)C)CC(=O)N(C)[C@@H](COC)C(=O)N[C@@H]([C@@H](C)CC)C(=O)N(C)CC(=O)N(C)[C@H]3C/C=C\CCN(C3=O)[C@@H](Cc3ccc(C)cc3)C(=O)N(C)CC(=O)N[C@@H](CCc3cc(F)c(C(F)(F)F)c(F)c3)C(=O)N2C1` [PP2391], the Kd in experiment [1] (setting [5]) was found to be 4.3e-11 M. Also, the “NRAS/KRAS (ratio of KD value for NRAS to KD value for KRAS)” value in experiment [2] (SPR) was “A (a compound having 10 or more and less than 20 is denoted as A)”. Moreover, in experiment [3] (SPR), the “HRAS/KRAS (ratio of KD value for HRAS to KD value for KRAS)” value is “A (a compound having 10 or more and less than 20 is denoted as A)”. This compound displayed an IC50 in experiment [4] of 8.9 nM.

Turning to `C=CC[C@H]1C(=O)N[C@@H]([C@@H](C)CC)C(=O)N(C)CC(=O)N(C)[C@H]2C/C=C\CCN(C2=O)[C@@H](CC2CCC(F)(F)CC2)C(=O)N(C)CC(=O)N[C@@H](CCc2cc(F)c(C(F)(F)F)c(F)c2)C(=O)N2C[C@H](OCC)C[C@H]2C(=O)NC2(CCC2)C(=O)N(C)[C@@H](C2CCCC2)C(=O)N(C)[C@H](C(=O)N(C)C)CC(=O)N1C` [PP1454, (2S,8S,12R,14S,20S,23S,27S,30S,36S,38Z)-27-allyl-20-cyclopentyl-2-[(4,4-difluorocyclohexyl)methyl]-8-[2-[3,5-difluoro-4-(trifluoromethyl)phenyl]ethyl]-12-ethoxy-N,N,4,19,22,26,32,35-octamethyl-30-[(1S)-1-methylpropyl]-3,6,9,15,18,21,25,28,31,34,42-undecaoxo-spiro[1,4,7,10,16,19,22,26,29,32,35-undecazatricyclo[34.5.1.0^10,14]dotetracont-38-ene-17,1′-cyclobutane]-23-carboxamide], the Kd in experiment [1] (SPR, Single Cycle Kinetics, 1:1 binding model, GDP-bound KRAS wild-type protein, read-out: KRAS KD) is 9.6e-11 M. In addition, the “NRAS/KRAS (ratio of KD value for NRAS to KD value for KRAS)” value in experiment [2] (SPR, KD ratio class) was “A (a compound having 10 or more and less than 20 is denoted as A)”. Moreover, in experiment [3] (SPR, KD ratio class), the “HRAS/KRAS (ratio of KD value for HRAS to KD value for KRAS)” value was “A (a compound having 10 or more and less than 20 is denoted as A)”. Besides, in experiment [4], the IC50 was found to be 15.2 nM.

`CCO[C@@H]1C[C@H]2C(=O)NC3(CCC3)C(=O)N(C)[C@@H](C3CCCC3)C(=O)N(C)[C@H](C(=O)N(C)C)CC(=O)N(C)[C@@H](Cc3ccc(C#N)cc3)C(=O)N[C@@H]([C@@H](C)CC)C(=O)N(C)CC(=O)N(C)[C@H]3CCCCCN(C3=O)[C@@H](Cc3ccc(F)cc3)C(=O)N(C)CC(=O)N[C@@H](CCc3cc(F)c(C(F)(F)F)c(F)c3)C(=O)N2C1` [PP1157]: in experiment [1] (setting [5]), the Kd was found to be 6.1e-11 M. Further, the “NRAS/KRAS (ratio of KD value for NRAS to KD value for KRAS)” value in experiment [2] (SPR) was “B (a compound having 3 or more and less than 10 is denoted as B)”. In experiment [3] (SPR), the “HRAS/KRAS (ratio of KD value for HRAS to KD value for KRAS)” value is “B (a compound having 3 or more and less than 10 is denoted as B)”. Moreover, in experiment [4], the IC50 was 30.3 nM.

Compound `CCC[C@H]1C(=O)N[C@@H]([C@@H](C)CC)C(=O)N(C)CC(=O)N(C)[C@H]2C/C=C\CCN(C2=O)[C@@H](Cc2ccc(C(F)(F)F)cc2)C(=O)N(C)CC(=O)N[C@@H](CCc2cc(Cl)c3c(ccn3C)c2)C(=O)N2C[C@H](OCC)C[C@H]2C(=O)NC2(CC(C)(C)C2)C(=O)N(C)[C@@H](C(CC)CC)C(=O)N(C)[C@H](C(=O)N(C)C)CC(=O)N1C` [PP2896] gave a Kd in experiment [1] (KRAS KD (M), SPR Single Cycle Kinetics, GDP-bound KRAS wild-type protein, 1:1 binding model) of 2.8e-09 M. Also, the “NRAS/KRAS (ratio of KD value with respect to GDP-bound NRAS wild-type protein to KD value with respect to KRAS)” value in experiment [2] is “A (a compound having 10 or more and less than 20 is denoted as A)”. Further, the “HRAS/KRAS (ratio of KD value with respect to GDP-bound HRAS wild-type protein to KD value with respect to KRAS)” value in experiment [3] is “A (a compound having 10 or more and less than 20 is denoted as A)”. The compound also had an IC50 in experiment [4] of 79.3 nM.

For `CCC[C@H]1C(=O)N[C@@H]([C@@H](C)CC)C(=O)N2CCC[C@H]2C(=O)N(C)[C@H]2C/C=C\CCN(C2=O)[C@@H](Cc2ccc(C)cc2)C(=O)N(C)CC(=O)N[C@@H](CCc2cc(F)c(C(F)(F)F)c(F)c2)C(=O)N2C[C@H](OCC)C[C@H]2C(=O)N(C)C2(CCC2)C(=O)N(C)[C@@H](C2CCCC2)C(=O)N(C)[C@H](C(=O)N2CCCC2)CC(=O)N1C` [PP3117, (1S,4S,10S,13S,17S,20S,26S,28R,32S,38S,42Z)-20-cyclopentyl-32-[2-[3,5-difluoro-4-(trifluoromethyl)phenyl]ethyl]-28-ethoxy-2,14,18,21,24,36-hexamethyl-10-[(1S)-1-methylpropyl]-13-propyl-38-(p-tolylmethyl)-17-(pyrrolidine-1-carbonyl)spiro[2,8,11,14,18,21,24,30,33,36,39-undecazatetracyclo[37.5.1.0^4,8.0^26,30]pentatetracont-42-ene-23,1′-cyclobutane]-3,9,12,15,19,22,25,31,34,37,45-undecone], the Kd in experiment [1] (SPR, Single Cycle Kinetics, 1:1 binding model, read-out: KD value with respect to GDP-bound KRAS wild-type protein) stood at 1.5e-10 M; in experiment [1] (setting [5]) it was 1.5e-10 M. Also, in experiment [2] (SPR), the “NRAS/KRAS (ratio of KD value for NRAS to KD value for KRAS)” value was “A (a compound having 10 or more and less than 20 is denoted as A)”. In addition, the “ratio of the KD value with respect to GDP-bound NRAS wild-type protein to the KD value with respect to KRAS” value in experiment [2] (SPR, KD(NRAS)/KD(KRAS)) was “A (a compound having 10 or more and less than 20 is denoted as A)”. For the same compound, in experiment [3] (SPR), the “HRAS/KRAS (ratio of KD value for HRAS to KD value for KRAS)” value was “A (a compound having 10 or more and less than 20 is denoted as A)”. Also, in experiment [3] (SPR, KD(HRAS)/KD(KRAS)), the “ratio of the KD value with respect to GDP-bound HRAS wild-type protein to the KD value with respect to KRAS” value was “A (a compound having 10 or more and less than 20 is denoted as A)”. Further, the IC50 in experiment [4] (read-out: NCI-H441 cell proliferation inhibitory activity, 50% proliferation inhibitory concentration (IC50 value), NCI-H441, four days, CellTiter-Glo) was 2.6 nM.

For `CCC[C@H]1C(=O)N[C@@H]([C@@H](C)CC)C(=O)N(C2CC2)CC(=O)N(C)[C@H]2C/C=C\CCN(C2=O)[C@@H](Cc2ccc(C)cc2)C(=O)N(C)CC(=O)N[C@@H](CCc2ccc(C(F)(F)F)c(OC)c2)C(=O)N2C[C@@H](C)C[C@H]2C(=O)N(C)C2(CCC2)C(=O)N(C)[C@@H](C2CCCC2)C(=O)N(C)[C@H](C(=O)N(C)C)CC(=O)N1C` [PP2366], the Kd in experiment [1] (setting [5]) stood at 4.8e-11 M. In experiment [2] (SPR), the “NRAS/KRAS (ratio of KD value for NRAS to KD value for KRAS)” value was “A (a compound having 10 or more and less than 20 is denoted as A)”. For the same compound, the “HRAS/KRAS (ratio of KD value for HRAS to KD value for KRAS)” value in experiment [3] (SPR) was “A (a compound having 10 or more and less than 20 is denoted as A)”. In addition, in experiment [4], the IC50 came out at 4.5 nM.

`C=CCC[C@H]1C(=O)N[C@@H]([C@@H](C)CC)C(=O)N(C)CC(=O)N(C)[C@H]2CCCCCN(C2=O)[C@@H](Cc2ccc(C(F)(F)F)cc2)C(=O)N(C)CC(=O)N[C@@H](CCc2cc(F)c(C(F)(F)F)c(F)c2)C(=O)N2C[C@H](OCC)C[C@H]2C(=O)N[C@](C)(CC=C)C(=O)N(C)[C@@H](C2CCCC2)C(=O)N(C)[C@H](C(=O)N2CCOCC2)CC(=O)N1C` [PP0879]: the Kd in experiment [1] (setting [5]) amounted to 8.6e-09 M. In addition, in experiment [2] (SPR), the “NRAS/KRAS (ratio of KD value for NRAS to KD value for KRAS)” value is “B (a compound having 3 or more and less than 10 is denoted as B)”. Also, the “HRAS/KRAS (ratio of KD value for HRAS to KD value for KRAS)” value in experiment [3] (SPR) is “B (a compound having 3 or more and less than 10 is denoted as B)”. For the same compound, in experiment [4], the IC50 came out at 195 nM.
